Laboratory results taken from patent US20250099488A1, “ANTI-PARASITE COMPOUNDS” (AUSTRALIAN NATIONAL UNIVERSITY, priority 2022, published 2025).
Where two headings read alike, the source gives them in different places.

Experiments:
[1] = tested on: chloroquine resistant P. falciparum strain C4_Dd2; assay: Growth inhibition of chloroquine resistant P. falciparum strain; format: cell-based, Plasmodium falciparum; details: 72 hours, FIG. 21D; conjugate = BC75D
Method: (§1) Growth inhibition was investigated according to methods described by Smilkstein et al. (2004) with modifications by Spry et al. (2013). Compounds or solvent controls (DMSO, ethanol, or ethyl acetate) were serially diluted 2-fold across flat-bottom 96-well plates. Complete culture media without compound was used as a negative control. Chloroquine (100-200 nM) {Sigma C6628} was used as a positive control to determine background fluorescence. The parasitaemia of a culture containing predominantly ring stage parasites was counted by Giemsa smear. The parasitaemia was adjusted to 1% by addition of fresh uRBCs, and added to the plate at a final haematocrit of 1%, with 200 μL per well. The plates were incubated at 37° C. under humid microaerophilic conditions. After 72 hours (or the indicated timepoint), the plates were transferred to a −18° C. freezer to stop the assay and lyse cells. Plates were thawed and lysate was mixed 1:1 with SYBR Safe DNA Gel Stain {Invitrogen 33102}(final concentration 1/10000) diluted in lysis buffer (20 mM TRIS, 5 mM EDTA, 0.008% w/v Saponin, 0.08% w/v Triton-X 100, pH 7.5). Fluorescence was read at 490 nm excitation/520 nm emission on a FLUOstar Optima fluorescence plate reader {BMG Labtech}. […]

[2] = HEK293 cell viability assay (MTT); format: cell-based, human; details: human, 72 hours, FIG. 21E, conjugate = BC75D, read-out: IC50, HEK293 cytotoxicity
Method: HEK293 cell viability assays began with 5000 cells per well. 10 μg/mL cycloheximide was used as a no-growth control. Metabolic capacity (indicating viability) was measured by incubation with 0.45 mg/mL methylthiazolyldiphenyl-tetrazolium bromide (MTT; Sigma M2128) for two hours followed by crystal solubilisation in SDS.

[3] = tested on: P. falciparum infected red blood cells (iRBC) vs uninfected red blood cells (uRBC); assay: Uptake of fluorescent cholesterol analogues into infected vs uninfected RBCs (flow cytometry, microscopy); format: cell-based, Plasmodium falciparum; details: 24 hrs incubation, ring-stage culture, cholesterol-depleted media
Method: (§2) For quantification, events were measured on a LSR II or LSRFortessa Flow Cytometer. NBD/BODIPY fluorescence was detected at 488 nm ex/530 nm em. Hoechst 33342 (Thermo Fisher) fluorescence was detected at 410 nm ex/450 nm em. Resorufin fluorescence was detected at 561 nm ex/610 nm em. Mitotracker Deep Red was detected at 633 nm ex/670 nm em. Dehydroergosterol was detected at 355 nm ex/450 nm em.
(§3) Data were initially processed using FlowJo. RBCs were gated on FSC and SCC. iRBCs (positive) and uRBCs (negative) were differentiated by Hoechst or Mitotracker fluorescence. The geometric mean of fluorescence intensity (mean fluorescence intensity, MFI) and/or the percentage of each population (e.g. Hoechst positive) was calculated with FlowJo. Background fluorescence was subtracted based on unstained controls (buffer or solvent only). Except where otherwise specified, MFI data was normalised between experiments by setting the fluorescence of untreated uRBCs to 1.
Ring-stage parasites at 4% parasitaemia and 2% haematocrit were incubated with 2.02 uM cholesterol analogues or solvent controls in cholesterol-depleted media for 24 hours at 37° C. under microaerophilic conditions. […] Samples were read on a flow cytometer or imaged with fluorescence microscopy as described above. […]

Leishmania tarentolae = Leishmania tarentolae growth inhibition; format: cell-based; details: 72 hours, FIG. 22
[4] = tested on: human foreskin fibroblasts (HFF); assay: HFF growth inhibition assay (SYBR Safe); format: cell-based; details: 72 hrs
Method: Cells were incubated with a serial dilution of each compound, or media/DMSO alone. The protein synthesis inhibitor cycloheximide (10 μg/mL) was used as a positive control to determine background fluorescence. Approximately 5000 cells were seeded in each well. […] Plates were transferred to a −18° C. freezer. […] Fluorescence was read at 490 nm excitation/520 nm emission on a FLUOstar Optima fluorescence plate reader.
HFF cell growth inhibition assays began with 5000 cells per well. 10 μg/mL cycloheximide was used as a no-growth control.

[5] = tested on: P. falciparum gametocytes (stage III-IV); assay: Gametocyte viability assay (MitoTracker, flow cytometry); format: cell-based, Plasmodium falciparum; details: FIG. 9C
Source text: Gametocyte assays begun eight days post-invasion (Stage III-IV).
(§4) Growth inhibition data were normalised by subtracting background fluorescence, luminescence, absorbance, or percentage of cells from a no-growth or no-viability control (high drug concentration, no-parasite control, or time=0 measurement as specified), and expressed as a percentage of the growth or cell percentage in the negative control (culture media alone or solvent control) at the indicated timepoint (or to the highest measurement reached during the assay for FIG. 15B).

[6] = tested on: chloroquine sensitive P. falciparum strains 3D7 and C2_GC03; assay: Growth inhibition of chloroquine sensitive P. falciparum strains; format: cell-based, Plasmodium falciparum; details: FIG. 21B/21C
Method: as §1

[7] = tested on: P. falciparum infected red blood cells (iRBC) vs uninfected red blood cells (uRBC); assay: Uptake and cleavage of steroid-resorufin conjugate in iRBCs vs uRBCs; format: cell-based, Plasmodium falciparum; details: steroid-resorufin conjugate (PAYb193), FIG. 10A
Method: Images were collected and deconvoluted on a Deltavision Deconvolution microscope at 1000× magnification, with a resolution of 0.067 μm per pixel. NBD and BODIPY fluorescence were detected at 475/28 nm excitation and 525/48 nm emission. Hoechst fluorescence (nucleic acid) was detected at 390/18 nm and ex/435/48 nm em. Resorufin fluorescence was detected at 575/25 nm ex and 626/45 nm em.
as §2, §3

asexual P. falciparum = assay: Plasmodium growth inhibition assay (SYBR Safe), asexual stages; format: cell-based, Plasmodium falciparum; details: 72 hrs, FIG. 10B
Method: Compounds or solvent controls (DMSO, ethanol, or ethyl acetate) were serially diluted 2-fold across flat-bottom 96-well plates. Complete culture media without compound was used as a negative control. Chloroquine (100-200 nM) {Sigma C6628} was used as a positive control to determine background fluorescence. The parasitaemia of a culture containing predominantly ring stage parasites was counted by Giemsa smear. The parasitaemia was adjusted to 1% by addition of fresh uRBCs, and added to the plate at a final haematocrit of 1%, with 200 μL per well. The plates were incubated at 37° C. under humid microaerophilic conditions. […] Fluorescence was read at 490 nm excitation/520 nm emission on a FLUOstar Optima fluorescence plate reader {BMG Labtech}.
Growth inhibition data were normalised by subtracting background fluorescence from a no-growth control (high drug concentration or time=0 measurement as specified), and expressed as a percentage of the growth in the negative control (media alone or solvent control) either at the indicated timepoint, or to the highest measurement reached during the assay.
P. falciparum asexual parasite assays begun with ring-stage parasites at 1% parasitaemia and 1% haematocrit. 200 nM chloroquine (Sigma C6628) was used as a no-growth control. […] 17]; 8 (2):e54974).
as §4

With `CCN(CCCC(C)Nc1ccnc2cc(Cl)ccc12)CCOC(=O)CCC(=O)O[C@H]1CC[C@H]2[C@@H]3CC=C4C[C@@H](O)CC[C@]4(C)[C@H]3CC[C@]12C` (stereo partly shown) [hydroxychloroquine-steroid conjugate] as the molecule, how does the “Times more effective at killing resistant parasites than hydroxychloroquine” value [1] read?
The value was 2.6 fold.

What about the IC50 at 72 h [2] of the same molecule?
Its IC50 at 72 h is 13 µM.

With `CC1=CC(C)=[N+]2C1=C(CC[C@@H](C)[C@H]1CC[C@H]3[C@@H]4CC=C5C[C@@H](O)CC[C@]5(C)[C@H]4CC[C@]13C)c1c(C)cc(C)n1[B-]2(F)F` [24-BODIPY-cholesterol] as the molecule, how does the “Uptake in iRBC compared to uRBC (fold change of fluorescence)” value [3] read?
Its value is “seems to get stuck at the RBC membrane”.

What does the source list for `COc1cc(NC(C)CCCNC(=O)CCC(=O)O[C@H]2CC[C@H]3[C@@H]4CC=C5C[C@@H](O)CC[C@]5(C)[C@H]4CC[C@]23C)c2ncccc2c1` (stereo partly shown) [BC5B]?
IC50 (Leishmania tarentolae): higher efficacy than primaquine; Maximal inhibition of HFF growth at the range of concentrations tested [4]: ≤ 50%; Susceptibility of early (I-III) and late stage (III-IV) gametocytes [5]: both early (A) and late-stage (B) gametocytes are equally susceptible

Which IC50 (Leishmania tarentolae; Leishmania tarentolae, read-out: IC50) does the source give for `CC(C)(C)OOCCO[C@H]1CC[C@H]2[C@@H]3CC=C4C[C@@H](O)CC[C@]4(C)[C@H]3CC[C@]12C` [BC86D] here?
Its IC50 is under 1 µM.

Which “Fold better efficacy than hydroxychloroquine-steroid conjugates” value [6] does the source give for `CCN(CCO)CCCC(C)Nc1ccnc2cc(Cl)ccc12` (stereo not shown) [hydroxychloroquine, reference compound] here?
Its value is 1.4-1.6 fold.

And the IC50 at 72 h ([2]; HEK293 cells)?
Its IC50 at 72 h is 38.4 µM.

With `C[C@]12CC[C@H]3[C@@H](CC=C4C[C@@H](O)CC[C@@]43C)[C@@H]1CC[C@@H]2OC(=O)CCC(=O)OCOc1ccc2nc3ccc(=O)cc-3oc2c1` [steroid-resorufin conjugate, 3β-Hydroxyandrost-5-en-17β-yl succinate-(hydroxymethoxy)-resorufin ester] as the molecule, how does the “Uptake of the probe, iRBCs vs uRBCs” value [7] read?
The value was “approximately 2 fold”.

Which results are given for `CC12CCC(O)CC1=CCC1C2CCC2(C)C(OC(=O)CCC(=O)OCOc3ccc4nc5ccc(=O)cc-5oc4c3)CCC12` (stereo not drawn) [Payb193, 3β-hydroxyandrost-5-en-17β-yl succinate-(hydroxymethoxy)-resorufin ester]?
Killing of the parasite compared with uncoupled resorufin (dose-response curve) (asexual P. falciparum): can kill the parasite at lower concentrations than the uncoupled resorufin base molecule; Uptake of the probe, iRBCs vs uRBCs [7]: approximately 2 fold

For `CC(C)CCC[C@@H](C)[C@H]1CC[C@H]2[C@@H]3CC=C4C[C@@H](OC(=O)CCCCCNc5ccc([N+](=O)[O-])c6nonc56)CC[C@]4(C)[C@H]3CC[C@]12C` [3-hexanoyl-NBD-cholesterol], which “Uptake in iRBC compared to uRBC (fold change of fluorescence)” value [3] is on record?
Its value is “not significantly different”.
